Measurements: PubChem BioAssay (NCI)
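These data come from cells grown in 96-well plates and exposed to compound for 48 hours at five concentrations. Abbreviation: GI50, concentration required for 50% inhibition of growth. TGI: concentration producing complete growth inhibition.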

Tests used:
Test in all cases: inhibition of tumour cell growth, NCI panel, 48 h
A549 NSCLC = system: A549 NSCLC
COLO 205 colon = system: COLO 205 colon
KM12 colon = system: KM12 colon
NCI-H460 lung = system: NCI-H460 lung
OVCAR-8 ovarian = system: OVCAR-8 ovarian
RPMI-8226 leukemia = system: RPMI-8226 leukemia
SK-OV-3 ovarian = system: SK-OV-3 ovarian
SW-620 colon = system: SW-620 colon
TK-10 renal = system: TK-10 renal
U251 CNS = system: U251 CNS

Row | SMILES | TGI (A549 NSCLC) | TGI (COLO 205 colon) | TGI (KM12 colon) | TGI (NCI-H460 lung) | TGI (OVCAR-8 ovarian) | TGI (RPMI-8226 leukemia) | TGI (SK-OV-3 ovarian) | TGI (SW-620 colon) | TGI (TK-10 renal) | TGI (U251 CNS) | GI50 (A549 NSCLC) | GI50 (COLO 205 colon) | GI50 (KM12 colon) | GI50 (NCI-H460 lung) | GI50 (OVCAR-8 ovarian) | GI50 (RPMI-8226 leukemia) | GI50 (SK-OV-3 ovarian) | GI50 (SW-620 colon) | GI50 (TK-10 renal) | GI50 (U251 CNS)
1 | Cn1c(=O)nc2n(-c3ccc(F)c(F)c3)c3ccccc3nc-2c1=O | 60.5 µM | 15.7 µM | > 100 µM | 35.5 µM | 68.1 µM | 72.2 µM | > 100 µM | 20.3 µM | > 100 µM | 36.2 µM | – | – | – | – | – | – | – | – | – | –
2 | O=c1oc2ccc(F)cc2c(=O)n1-c1ccc(I)cc1F | > 94.7 µM | 8.82 µM | 5.38 µM | 9.85 µM | > 41.9 µM | 0.745 µM | 10.5 µM | 13.3 µM | 17.5 µM | > 100 µM | 2.4 µM | 2.67 µM | 1.92 µM | 0.404 µM | 0.872 µM | 0.239 µM | 0.522 µM | 0.584 µM | 1.06 µM | 0.469 µM
3 | C#Cc1cccc(Nc2nc(C)nc3cc(NC(=O)CCl)ccc23)c1 | 8.66 µM | 7.41 µM | 8.15 µM | 7.19 µM | 6.12 µM | 4.75 µM | 7.31 µM | 1.93 µM | 6.77 µM | 1.7 µM | 4.68 µM | 3.26 µM | 4.13 µM | 3.23 µM | 2.07 µM | 1.12 µM | 3.81 µM | 0.659 µM | 3.52 µM | 0.641 µM
4 | CCCC[C@H](CCc1ccccc1)N(C(=O)OC)N1CCC[C@H]1COC | 67.1 µM | 30.8 µM | 35.9 µM | 31.6 µM | 71.5 µM | > 100 µM | 60.2 µM | 29.8 µM | 79.3 µM | 29.1 µM | – | – | – | – | – | – | – | – | – | –
5 | COC(=O)C(/C(=N/N)C(=O)Nc1cc(Cl)ccc1Cl)c1nc2ccc([N+](=O)[O-])cc2[nH]c1=O (stereo not drawn) | > 100 µM | > 100 µM | > 100 µM | > 100 µM | > 100 µM | > 100 µM | > 100 µM | > 100 µM | > 100 µM | > 100 µM | – | – | – | – | – | – | – | – | – | –
6 | O=C(Nc1ccc(Cl)cc1)c1cc(NCc2cc(O)ccc2O)ccc1O | 44 µM | 28.5 µM | 14.6 µM | 33.2 µM | 20.1 µM | 4.41 µM | 60.7 µM | 22.8 µM | 23.6 µM | 13.4 µM | 18.4 µM | 5.29 µM | 3.33 µM | 13.3 µM | 4.35 µM | 0.57 µM | 25 µM | 4.14 µM | 11.1 µM | 3.96 µM
7 | Cc1ccc(NC(=O)C(=O)C2C(=O)NC(=O)NC2=O)c(C)c1 | > 100 µM | 26.8 µM | > 100 µM | > 100 µM | > 100 µM | > 100 µM | > 100 µM | > 100 µM | > 100 µM | > 100 µM | – | – | – | – | – | – | – | – | – | –
8 | NC1=C(O)/C(=N/NS(=O)(=O)c2ccccc2)C(c2ccc3c(c2)OCO3)O1 (stereo not drawn) | > 100 µM | > 100 µM | > 100 µM | > 100 µM | > 100 µM | > 100 µM | > 100 µM | > 100 µM | > 100 µM | > 100 µM | – | – | – | – | – | – | – | – | – | –
9 | COc1ccc(Cc2ccc3[nH]c(=O)cc(C)c3c2)cc1S(=O)(=O)O | > 100 µM | > 100 µM | > 100 µM | > 100 µM | > 100 µM | > 100 µM | > 100 µM | > 100 µM | > 100 µM | > 100 µM | – | – | – | – | – | – | – | – | – | –
10 | O=C(O)c1nn(-c2ccc(Cl)cc2)c2c1C(=O)c1ccccc1C2=O | > 100 µM | > 100 µM | > 100 µM | > 100 µM | > 100 µM | > 100 µM | > 100 µM | > 100 µM | > 100 µM | > 100 µM | – | – | – | – | – | – | – | – | – | –
11 | O=C(/C=C/c1ccc(-c2ccccc2)cc1)c1ccccc1 | 56.3 µM | 52.7 µM | 40.6 µM | 50.9 µM | 33.8 µM | 61.8 µM | 58.5 µM | 42.7 µM | 82.6 µM | 58.5 µM | – | – | – | – | – | – | – | – | – | –
12 | CC(C)(C)c1cc[n+](C[n+]2ccc(C(C)(C)C)cc2)cc1 | > 100 µM | > 100 µM | > 100 µM | > 100 µM | > 100 µM | > 100 µM | > 100 µM | > 100 µM | > 100 µM | > 100 µM | – | – | – | – | – | – | – | – | – | –
13 | CC1(C)N=C(N)N=C(N)N1c1cccc(CCCCc2ccc(Cl)c(S(=O)(=O)F)c2)c1 | 36 µM | 18.6 µM | 15.6 µM | 14.5 µM | > 100 µM | 25.1 µM | 27.8 µM | 15.8 µM | 39.3 µM | 21.3 µM | 4.38 µM | 1.75 µM | 1.79 µM | 0.938 µM | 9.28 µM | 4.97 µM | 11.7 µM | 0.455 µM | 10.7 µM | 0.655 µM
14 | CN1C(c2ccccc2)CC(=NO)CC1c1ccccc1 (stereo not drawn) | > 100 µM | 48 µM | > 100 µM | > 100 µM | > 100 µM | 55.5 µM | > 100 µM | > 100 µM | > 100 µM | > 100 µM | 88.1 µM | 33.6 µM | 49.1 µM | 41.2 µM | 54.1 µM | 33 µM | – | 43 µM | 66.5 µM | –
15 | CCCCNC(=O)Oc1ccc(/C(=C(\C)c2ccc(OC)cc2)c2ccc(OCCN3CCCCC3)cc2)cc1 | 16 µM | 4.63 µM | 5.91 µM | 3.86 µM | 11.1 µM | 5.13 µM | 25 µM | 6.15 µM | 23.3 µM | 5.99 µM | 4.15 µM | 2.07 µM | 2.35 µM | 1.94 µM | 3.4 µM | 2.14 µM | 7.63 µM | 2.45 µM | 9.41 µM | 2.49 µM
16 | CC(C)(C)OC(=O)NC(Cc1ccccc1)C(=S)N1CCCC1 (stereo not drawn) | > 100 µM | > 100 µM | > 100 µM | > 100 µM | > 100 µM | 98 µM | > 100 µM | > 100 µM | > 100 µM | > 100 µM | – | – | – | – | – | – | – | – | – | –
